“Also recorded” adds a separate entry of the source.
Legend:
lean control mouse = experiment: Single intracerebroventricular (ICV) injection, food intake and weight change after 24 hours; format: in vivo; conditions: 2 nmol ICV, 24 hours
Protocol: To investigate a central anorexigenic mechanism for weight loss in mice treated with NB-DNJ, single intracerebro-ventricular (ICV) injections were performed. The mice were assessed for food intake and weight change. Mice were anesthetized with isofluorane (4%) delivered by a vaporiser. Upon achievement of a surgical plane of anaesthesia, the animal was transferred to and secured in a Kopf small animal ultra precise stereotaxic instrument (David Kopf Instruments, Tujunga, Calif., USA) fitted with rat ear bars, mouse adaptor and mouse anaesthesia mask. A small amount of lignocaine local anaesthetic gel was applied to the ear bars to reduce any post-operative discomfort. For the remainder of the procedure, anaesthesia was maintained with 2.5% isofluorane. Lacrilube (Allergan Ltd, High Wycombe, UK) was applied to the mouse's eyes and a subcutaneous injection of the non-steroidal anti-inflammatory drug, Rimadyl (Pfizer, Sandwich, Kent, UK) was given for post-operative analgesia. For ICV injections, a small scalpel incision was made along the midline of the scalp from above the eyes to the occiput. A small hole was drilled in the skull, 1 mm lateral and 0.34 mm posterior to Bregma. 1 μl solution was slowly infused into the lateral ventricle at a depth of 2.25 mm, via a glass needle pipette pulled to a thickness of less than 100 microns at the tip. Mice were injected with 2 nmol compound (NB-DNJ, NB-DGJ or 2-deoxy glucose) in isotonic saline vehicle which was injected into controls. The incision was then closed using VetBond acrylic suture fluid (3M Animal Care Products, St Paul, Minn., USA). The whole procedure from induction of anaesthesia to full recovery lasted less than seven minutes. Mice were allowed free access to a pre-weighed quantity of RM1 pellet diet with water provided ad libitum. 24 hours following ICV injection the mice and remaining diet were weighed. To confirm a central anorectic effect of NB-DNJ, 2 nmol NB-DNJ, NB-DGJ and 2 deoxyglucose were injected directly into the lateral cerebral ventricle of lean control mouse brain (approximately 100 μM final cerebro-ventricular concentration). Mice injected with both saline vehicle and NB-DGJ ate a normal quantity of pellet diet in the following 24 hours (FIG. 9), approximately 5% less in this experiment than that seen in control mice in FIG. 7 (not statistically significant). In contrast, NB-DNJ-injected mice ate 20% less (p<0.02 for both saline and NB-DGJ) and 2-deoxy-glucose injections caused a 10% increase in feeding. 2-deoxy-glucose is a mild appetite stimulant in the short-term. Tsutsui et al., Physiol Behav 31, 493-502. In contrast, NB-DGJ had no effect, as expected.

control lean mice = experiment: ICV mini-pump implants, long-term intracerebro-ventricular delivery; format: in vivo, mouse; conditions: ICV mini-pump 500 mM, first 24 hours
Protocol: FIG. 11. Control lean mice (n=5 in each group) had icv minipumps (50 mM imino sugar) implanted. Body weight was the monitored at regular intervals over three weeks. See example 7 for further experimental details. The effect of long-term intracerebro-ventricular delivery of imino sugars was determined by the implantation of Alzet mini-osmotic pumps (model 2004, DURECT Corporation, CA, USA) together with the brain infusion kit II which features a high stability low profile cannula. The mini-pumps were loaded with 0.24 ml imino sugar or saline vehicle. The indwelling 28 gauge stainless steel cannula was cut to a length of 2.25 mm. Mice were anaesthetised as for the ICV injections and underwent similar surgical procedures throughout. After drilling a small hole in the cranium at the midline, 2 mm posterior to Bregma, the mini-pump was positioned subcutaneously in the animal's flank and the cannula was implanted. This position and depth ensured delivery to the third cerebral ventricle. The implant was secured to the cranium using VetBond acrylic suture fluid, which was also used to close the surgical wound. The whole procedure lasted less than 9 minutes and mice were fully conscious and recovered within three minutes. For concentration of imino sugar in mini-pumps see figure legends.

C57B1/6 mice = experiment: Effect of imino sugars admixed with diet on growth of normal control mice; format: in vivo, mouse; conditions: 2400 mg/kg/day in diet
Protocol: Control C57B1/6 and C57BL/6O1aHsd-Lep ob mice were obtained from Harlan, UK at five weeks of age. The mice were housed under standard non-sterile conditions and fed a diet of mouse chow pelleted or expanded ground RM1 diet (SDS Ltd, Witham, Essex) with water available ad libitum. For dietary treatment of the mice with NB-DNJ or NB-DGJ, the diet and compound were admixed thoroughly as dry solids, stored at room temperature and used within 7 days. Unless indicated otherwise, mice were treated with a dose of 2400 mg/kg body weight per day, assuming an intake of around 5 g diet/day. Mice were maintained on diet with or without compound for up to six months of age and were weighed at regular intervals during the course of the experiment (see figure legends for group sizes and further experimental details). To study the effect of compound on obese mice, three groups (n=5) of ob/ob mice were monitored from five weeks of age. One group acted as control and were fed ground RM1 diet. At 6 weeks of age, the second group was started on NB-DNJ in the diet, whilst the third group started drug treatment at 12 weeks of age. All mice were then monitored for up to six months of age. […] In the first week of treatment, mice with NB-DNJ in their diet lost about 10% of their total body mass. Over the course of the following weeks, their weight stabilises. By 5 weeks of treatment they weighed 25% less than the controls. They then started to gain weight. However, after 10 weeks they remained 20% less in mass when compared with the age and sex-matched control group.

Structure (SMILES) | increase in feeding (lean control mouse) [%] | effect on dietary intake (control lean mice) | effect on weight change (control lean mice) | effect on growth / body weight (C57B1/6 mice) | effect on food intake (lean control mouse) | ate less than control mice of FIG. 7 (lean control mouse; not statistically significant)
O=CC[C@@H](O)[C@H](O)[C@H](O)CO [2-deoxy-glucose, 2-deoxyglucose] | 10 |  |  |  |  | 
CCCCN1C[C@H](O)[C@@H](O)[C@@H](O)[C@H]1CO [NB-DGJ] |  | no statistically significant effect | no statistically significant effect | did not lose weight; also recorded: no discernible effect | no effect | approximately 5%
